Assay [1] concerns the target GABA-A receptor; anion channel. Briefly: In vitro affinity for BZD site on GABA-A receptor from rat cerebral cortex using radioligand [3H]flunitrazepam. In kind it is tissue-based.
For assay [2], the target named is GABA-A receptor; anion channel (Rattus norvegicus) (UniProt O09028+P15431+P18506+P18508+P19969+P20236+P23574+P23576+P28471+P28473+P30191+P62813+P63079+P63138+Q91ZM7+Q9ES14). Description: Ratio of the binding in the absence and presence of GABA was determined. In kind it is protein-complex assay.
Assay [3] relates to Mus musculus. Briefly: Effective dose required for inhibition of pentylenetetrazole (PTZ)-induced seizures in mice intraperitoneally. The settings on record: ip. In kind it is functional.
For assay [4], the species on record is Mus musculus. Briefly: Effective dose required for inhibition of pentylenetetrazole (PTZ)-induced seizures in mice perorally. In kind it is functional. The settings on record: po.
The species entered for assay [5] is Rattus norvegicus. Briefly: Minimum effective dose required for anticonflict in rat perorally. It is filed as functional. The settings on record: po, read-out: MED.

For `CC(=O)OCCN1C2=C(C(=O)Nc3ccccc3F)C(=O)CCN2c2ccc(F)cc21`, the concentration for half-maximal inhibition (IC50) (usually the concentration that gives 50% inhibition) in assay [1] was determined as 0.2 nM. In assay [2], the GABA shift is 1.2. The 50% effective dose (ED50) (in general, the dose that gives a 50% effect, or the effect in half of the subjects) in assay [3] is not above 1 mg/kg; in assay [4] it was 3 mg/kg. Besides, in assay [5], the minimal effective dose amounted to 3 mg/kg.
Molecule `CN(C)/C=N/CCN1C2=C(C(=O)Nc3ccccc3F)C(=O)CCN2c2ccc(F)cc21` came in with a concentration for half-maximal inhibition (IC50) in assay [1] of 35 nM. Moreover, the GABA shift in assay [2] was 2.1. In addition, the 50% effective dose (ED50) in assay [3] was not above 1 mg/kg; in assay [4], 30 mg/kg. The minimal effective dose in assay [5] was 30 mg/kg.
`O=C1CCN2C(=C1C(=O)Nc1ccccc1F)N(CC1CCCO1)c1cc(F)ccc12` (stereo not drawn): in assay [1], the IC50 was 2.3 nM. Further, in assay [2], the GABA shift was found to be 2.2. Moreover, the ED50 in assay [3] was not above 1 mg/kg; in assay [4], 3 mg/kg. The minimal effective dose in assay [5] came out at 3 mg/kg.
`CCOCN1C2=C(C(=O)Nc3sccc3Cl)C(=O)CCN2c2ccc(F)cc21` had a 50% inhibitory concentration (IC50) in assay [1] of 0.7 nM. Besides, the GABA shift in assay [2] was found to be 1.6. Also, the values for the ED50 in assay [3] and in assay [4] were not above 1 mg/kg and 10 mg/kg, respectively. In assay [5], the minimal effective dose is more than 10 mg/kg.
The corresponding values for `CCOCN1C2=C(C(=O)Nc3ccccc3F)C(=O)CCN2c2ccccc21` are 151 nM, 2, more than 1 mg/kg, 3 mg/kg and 10 mg/kg.
In turn, `CCOCN1C2=C(C(=O)Nc3ccc(C)s3)C(=O)CCN2c2ccc(F)cc21` registered an IC50 in assay [1] of 0.7 nM. Moreover, in assay [2], the GABA shift is 2.3. Moreover, the ED50 in assay [3] was not above 1 mg/kg; in assay [4], 0.5 mg/kg. Also, in assay [5], the minimal effective dose stood at 0.3 mg/kg.
The corresponding values for `CCOCN1C2=C(C(=O)Nc3ccccc3F)C(=O)CCN2c2c1ccc(F)c2F` are 126 nM, 1.7, 1 mg/kg, more than 30 mg/kg and more than 10 mg/kg.
In turn, `CCOCN1C2=C(C(=O)Nc3ccccc3F)C(=O)CCN2c2cc(F)cc(F)c21` registered an IC50 in assay [1] of 13.3 nM. In assay [2], the GABA shift came to 2.9. In addition, in assay [5], the minimal effective dose was more than 10 mg/kg.
Take `CCOCN1C2=C(C(=O)Nc3cccs3)C(=O)CCN2c2ccc(F)cc21`: the half-inhibitory concentration (IC50) in assay [1] was 1 nM. For the same molecule, the GABA shift in assay [2] worked out at 2.1. Also, the figures for the median effective dose (ED50) in assay [3] and in assay [4] were not above 1 mg/kg and 0.2 mg/kg, respectively. For the same molecule, the minimal effective dose in assay [5] was found to be 3 mg/kg.
The corresponding values for `N=C(N)NCCN1C2=C(C(=O)Nc3ccccc3F)C(=O)CCN2c2ccc(F)cc21` are 5.6 nM, 1.7, more than 1 mg/kg, more than 30 mg/kg and more than 10 mg/kg.
On the same counts, the results for `CCOCN1C2=C(C(=O)Nc3ccccc3F)C(=O)CCN2c2cc3ccccc3cc21` are 2.2 nM, 1.4, less than 1 mg/kg, more than 30 mg/kg and more than 10 mg/kg.
`COC(=O)OCCN1C2=C(C(=O)Nc3ccccc3F)C(=O)CCN2c2ccc(F)cc21` gave an IC50 in assay [1] of 0.3 nM. Besides, the GABA shift in assay [2] came to 2.2. Besides, the ED50 in assay [3] is not above 1 mg/kg; in assay [4], 3 mg/kg. For the same molecule, the minimal effective dose in assay [5] worked out at 3 mg/kg.
`CCOCN1C2=C(C(=O)Nc3ccccc3F)C(=O)CCN2c2ccc(F)c(F)c21` displayed an IC50 in assay [1] of 0.5 nM. Further, the GABA shift in assay [2] is 1.7. Also, the ED50 in assay [3] is less than 1 mg/kg; in assay [4], less than 3 mg/kg. Moreover, the minimal effective dose in assay [5] was 1 mg/kg.
The molecule `CCOCN1C2=C(C(=O)Nc3ccsc3)C(=O)CCN2c2ccc(F)cc21` gave a half-inhibitory concentration (IC50) in assay [1] of 1 nM. Besides, in assay [2], the GABA shift stood at 1.7. For the same molecule, the ED50 in assay [3] was not above 1 mg/kg; in assay [4], less than 0.2 mg/kg. Further, the minimal effective dose in assay [5] was found to be 0.3 mg/kg.
On the same counts, the results for `CCOCN1C2=C(C(=O)Nc3ccccc3F)C(=O)CCN2c2ccc(Cl)cc21` are 0.5 nM, 2.8, less than 1 mg/kg, 2 mg/kg and more than 10 mg/kg.

Source of the values: ChEMBL document CHEMBL1135951, “Potential anxiolytic agents. Part 4: novel orally-active N(5)-substituted pyrido[1,2-a]benzimidazoles with high GABA-A receptor affinity” (Bioorg Med Chem Lett, 2002).
